Assay results: patent US9783537B2, “3-(4-ethylnylphenyl) pyridopyrimidinone compounds and process for preparation thereof useful as potential anticancer agents” (Council of Scientific & Industrial Research, priority 2013, dated 2017)
Like-named read-outs stand apart in the source and are kept apart here.

Key:
CCRF-CEM = assay: SRB 48 h growth assay, Leukemia CCRF-CEM; type: cell-based, human; conditions: for CC50 / GI50: Homo sapiens; for CC50: CCKF-CEM, read-out: Log10 LC50 (converted)
K-562 = assay: SRB 48 h growth assay, Leukemia K-562; type: cell-based, human; conditions: for GI50 / CC50: Homo sapiens, K562, K-562, Leukemia; for CC50: read-out: Log10 LC50 (converted); for Log10 TGI50: K-562, Leukemia
RPMI-8226 = assay: SRB 48 h growth assay, Leukemia RPMI-8226; type: cell-based, human; conditions: RPMI-8226, Leukemia
NCI-H226 = assay: SRB 48 h growth assay, Non-small Cell Lung NCI-H226; type: cell-based, human
NCI-H23 = assay: SRB 48 h growth assay, Non-small Cell Lung NCI-H23; type: cell-based, human
HCT-116 = assay: SRB 48 h growth assay, Colon HCT-116; type: cell-based, human; conditions: HCT-116, Colon
KM12 = assay: SRB 48 h growth assay, Colon KM12; type: cell-based, human; conditions: for GI50 / CC50: Homo sapiens; for CC50: read-out: Log10 LC50 (converted)
SW-620 = assay: SRB 48 h growth assay, Colon SW-620; type: cell-based, human; conditions: SW-620, Colon
LOX IMVI = assay: SRB 48 h growth assay, Melanoma LOX IMVI; type: cell-based, human
M14 = assay: SRB 48 h growth assay, Melanoma M14; type: cell-based, human
MDA-MB-435 = assay: SRB 48 h growth assay, Melanoma MDA-MB-435; type: cell-based, human; conditions: MDA-MB-435, Melanoma
SK-MEL-5 = assay: SRB 48 h growth assay, Melanoma SK-MEL-5; type: cell-based, human; conditions: SK-MEL-5, Melanoma; for GI50 / CC50: Homo sapiens; for CC50: read-out: Log10 LC50 (converted)
UACC-62 = assay: SRB 48 h growth assay, Melanoma UACC-62; type: cell-based, human; conditions: UACC-62, Melanoma; for GI50 / CC50: Homo sapiens; for CC50: read-out: Log10 LC50 (converted)
OVCAR-3 = assay: SRB 48 h growth assay, Ovarian OVCAR-3; type: cell-based, human; conditions: OVCAR-3, Ovarian
OVCAR-8 = assay: SRB 48 h growth assay, Ovarian OVCAR-8; type: cell-based, human; conditions: OVCAR-8, Ovarian; for GI50 / CC50: Homo sapiens; for CC50: read-out: Log10 LC50 (converted)
786-0 = assay: SRB 48 h growth assay, Renal 786-0; type: cell-based, human; conditions: 786-0, Renal
DU-145 = assay: SRB 48 h growth assay, Prostate DU-145; type: cell-based, human; conditions: DU-145, Prostate
MCF7 = assay: SRB 48 h growth assay, Breast MCF7; type: cell-based, human; conditions: for GI50 / CC50: Homo sapiens; for CC50: read-out: Log10 LC50 (converted)
HS578T = assay: SRB 48 h growth assay, Breast HS578T; type: cell-based, human; conditions: for GI50 / CC50: Homo sapiens, Hs-578T; for CC50: read-out: Log10 LC50 (converted)
BT-549 = assay: SRB 48 h growth assay, Breast BT-549; type: cell-based, human; conditions: BT-549, Breast; for GI50 / CC50: Homo sapiens; for CC50: read-out: Log10 LC50 (converted)
MDA-MB-468 = assay: SRB 48 h growth assay, Breast MDA-MB-468; type: cell-based, human; conditions: MDA-MB-468, Breast; for GI50 / CC50: Homo sapiens; for CC50: read-out: Log10 LC50 (converted)
[1] = test system: six leukemia cancer cell lines (CCRF-CEM, HL-60, K-562, MOLT-4, SR and RPMI-8226); assay: in vitro anticancer activity, leukemia panel; type: cell-based; conditions: Homo sapiens, exposure at least 48 h, read-out: GI50, range over panel
[2] = test system: seven colon cancer cell line (COLO 205, HCC-2998, HCT-116, HCT-15, HT29, KM12 and SW-620); assay: in vitro anticancer activity, colon panel; type: cell-based; conditions: Homo sapiens; seven colon cancer cell lines, exposure at least 48 h; read-out: GI50, range over panel
[3] = test system: six CNS cancer cell line (SF-268, SF-295, SF-539, SNB-19, SNB-75 and U251); assay: in vitro anticancer activity, CNS panel; type: cell-based; conditions: Homo sapiens; six CNS cancer cell lines, exposure at least 48 h; read-out: GI50, range over panel
[4] = in vitro anticancer activity, melanoma panel; type: cell-based; conditions: Homo sapiens; nine melanoma cell lines, exposure at least 48 h; read-out: GI50, range over panel
[5] = test system: two prostate cancer cell line (PC-3, DU-145); assay: in vitro anticancer activity, prostate panel; type: cell-based; conditions: Homo sapiens; two prostate cancer cell lines, exposure at least 48 h; read-out: GI50, range over panel
[6] = read-out: Growth Inhibition GI50
[7] = read-out: Log10 GI50 (converted)
[8] = Homo sapiens, read-out: Growth Inhibition GI50
[9] = Homo sapiens, read-out: Log10 GI50 (converted)
[10] = Homo sapiens, read-out: Log10 LC50 (converted)

C#Cc1ccc(-n2c(/C=C/c3ccc4ccccc4c3)nc3ncccc3c2=O)cc1 [4s, (E)-3-(4-Ethynylphenyl)-2-(2-(naphthalen-2-yl)vinyl)pyrido[2,3-d]pyrimidin-4(3H)-one]
Log10 TGI50 (CCRF-CEM): >−4.00
CC50 (CCRF-CEM): > 100 µM
GI50 (CCRF-CEM; [6]): 1530 nM
GI50 (CCRF-CEM; [7]): 1510 nM
GI50 (K-562; [6]): 2430 nM
GI50 (K-562; [7]): 2450 nM
CC50 (K-562): > 100 µM
Log10 TGI50 (K-562): ->−4.00
GI50 (RPMI-8226; [8]): 450 nM
GI50 (RPMI-8226; [9]): 447 nM
CC50 (RPMI-8226; [10]): > 100 µM
Log10 TGI50 (RPMI-8226): >−4.00
GI50 (NCI-H226; [8]): 2330 nM
GI50 (NCI-H226; [9]): 2340 nM
Log10 TGI50 (NCI-H23): >−4.00
GI50 (NCI-H23; [8]): 6.39 µM
GI50 (NCI-H23; [9]): 6.46 µM
LC50 (NCI-H23; [10]): > 100 µM
GI50 (HCT-116; [8]): 2220 nM
GI50 (HCT-116; [9]): 2240 nM
Log10 TGI50 (KM12): >−4.00
GI50 (KM12; [6]): 2950 nM
GI50 (KM12; [7]): 2950 nM
CC50 (KM12): > 100 µM
GI50 (SW-620; [8]): 2220 nM
GI50 (SW-620; [9]): 2240 nM
Log10 TGI50 (LOX IMVI): −5.51
GI50 (LOX IMVI; [8]): 510 nM
GI50 (LOX IMVI; [9]): 513 nM
CC50 (LOX IMVI; [10]): 3.09 µM
Log10 TGI50 (M14): −5.36
GI50 (M14; [8]): 2070 nM
GI50 (M14; [9]): 2090 nM
CC50 (M14; [10]): 4.37 µM
GI50 (MDA-MB-435; [8]): 2060 nM
GI50 (MDA-MB-435; [9]): 2040 nM
CC50 (MDA-MB-435; [10]): > 100 µM
Log10 TGI50 (MDA-MB-435): >−4.00
GI50 (SK-MEL-5; [6]): 1160 nM
GI50 (SK-MEL-5; [7]): 1150 nM
CC50 (SK-MEL-5): 2510 nM
Log10 TGI50 (SK-MEL-5): −5.60
GI50 (UACC-62; [6]): 2490 nM
GI50 (UACC-62; [7]): 2510 nM
CC50 (UACC-62): > 100 µM
Log10 TGI50 (UACC-62): >−4.00
GI50 (OVCAR-3; [8]): 2040 nM
GI50 (OVCAR-3; [9]): 2040 nM
GI50 (OVCAR-8; [6]): 3050 nM
GI50 (OVCAR-8; [7]): 3020 nM
CC50 (OVCAR-8): > 100 µM
Log10 TGI50 (OVCAR-8): >−4.00
Log10 TGI50 (786-0): >−4.00
GI50 (786-0; [8]): 4080 nM
GI50 (786-0; [9]): 4070 nM
CC50 (786-0; [10]): > 100 µM
Log10 TGI50 (DU-145): >−4.00
GI50 (DU-145; [8]): 7.45 µM
GI50 (DU-145; [9]): 7.41 µM
CC50 (DU-145; [10]): > 100 µM
Log10 TGI50 (MCF7): >−4.00
GI50 (MCF7; [6]): 2430 nM
GI50 (MCF7; [7]): 2450 nM
CC50 (MCF7): > 100 µM
Log10 TGI50 (HS578T): >−4.00
GI50 (HS578T; [6]): 7.62 µM
GI50 (HS578T; [7]): 7.59 µM
CC50 (HS578T): > 100 µM
Log10 TGI50 (BT-549): −5.26
GI50 (BT-549; [6]): 1980 nM
GI50 (BT-549; [7]): 2000 nM
CC50 (BT-549): 5.5 µM
GI50 (MDA-MB-468; [6]): 960 nM
GI50 (MDA-MB-468; [7]): 955 nM
CC50 (MDA-MB-468): 7.76 µM
Log10 TGI50 (MDA-MB-468): −5.11
GI50 [1]: 260 to 450 nM
GI50 [2]: 300 to 360 nM
GI50 [3]: 200 to 720 nM
GI50 [4]: 190 to 1210 nM
GI50 [5]: 280 to 340 nM

C#Cc1ccc(-n2c(/C=C/c3ccc4ccccc4n3)nc3ncccc3c2=O)cc1 [4t, (E)-3-(4-Ethynylphenyl)-2-(2-(quinolin-2-yl)vinyl)pyrido[2,3-d]pyrimidin-4(3H)-one]
CC50 (CCRF-CEM): > 100 µM
GI50 (CCRF-CEM; [6]): 260 nM
GI50 (CCRF-CEM; [7]): 263 nM
GI50 (K-562; [6]): 330 nM
GI50 (K-562; [7]): 331 nM
CC50 (K-562): > 100 µM
Log10 TGI50 (K-562): >−4.00
GI50 (RPMI-8226; [8]): 260 nM
GI50 (RPMI-8226; [9]): 269 nM
Log10 TGI50 (RPMI-8226): −5.99
Log10 TGI50 (NCI-H226): −6.15
GI50 (NCI-H226; [8]): 250 nM
GI50 (NCI-H226; [9]): 251 nM
LC50 (NCI-H226; [10]): 5.89 µM
Log10 TGI50 (NCI-H23): −5.62
GI50 (NCI-H23; [8]): 0.7 µM
GI50 (NCI-H23; [9]): 0.708 µM
Log10 TGI50 (HCT-116): −5.92
GI50 (HCT-116; [8]): 340 nM
GI50 (HCT-116; [9]): 347 nM
CC50 (HCT-116; [10]): 3.89 µM
Log10 TGI50 (KM12): −5.97
GI50 (KM12; [6]): 320 nM
GI50 (KM12; [7]): 324 nM
CC50 (KM12): 3.47 µM
GI50 (SW-620; [8]): 350 nM
GI50 (SW-620; [9]): 355 nM
CC50 (SW-620; [10]): 3.89 µM
Log10 TGI50 (SW-620): −5.90
Log10 TGI50 (LOX IMVI): −5.99
GI50 (LOX IMVI; [8]): 320 nM
GI50 (LOX IMVI; [9]): 324 nM
Log10 TGI50 (M14): −6.18
GI50 (M14; [8]): 260 nM
GI50 (M14; [9]): 263 nM
GI50 (MDA-MB-435; [8]): 190 nM
GI50 (MDA-MB-435; [9]): 195 nM
GI50 (SK-MEL-5; [6]): 170 nM
GI50 (SK-MEL-5; [7]): 178 nM
CC50 (SK-MEL-5): 759 nM
Log10 TGI50 (SK-MEL-5): −6.43
GI50 (UACC-62; [6]): 390 nM
GI50 (UACC-62; [7]): 398 nM
CC50 (UACC-62): 9.33 µM
Log10 TGI50 (UACC-62): −5.67
GI50 (OVCAR-3; [8]): 300 nM
GI50 (OVCAR-3; [9]): 302 nM
CC50 (OVCAR-3; [10]): 4.79 µM
Log10 TGI50 (OVCAR-3): −6.06
GI50 (OVCAR-8; [6]): 340 nM
GI50 (OVCAR-8; [7]): 347 nM
CC50 (OVCAR-8): > 100 µM
Log10 TGI50 (786-0): −5.88
GI50 (786-0; [8]): 380 nM
GI50 (786-0; [9]): 389 nM
Log10 TGI50 (DU-145): −6.15
GI50 (DU-145; [8]): 0.28 µM
GI50 (DU-145; [9]): 0.282 µM
GI50 (MCF7; [6]): 280 nM
GI50 (MCF7; [7]): 288 nM
CC50 (MCF7): > 100 µM
GI50 (HS578T; [6]): 0.24 µM
GI50 (HS578T; [7]): 0.24 µM
CC50 (HS578T): > 100 µM
Log10 TGI50 (BT-549): −5.87
GI50 (BT-549; [6]): 350 nM
GI50 (BT-549; [7]): 355 nM
CC50 (BT-549): 5.5 µM
GI50 (MDA-MB-468; [6]): 230 nM
GI50 (MDA-MB-468; [7]): 234 nM
CC50 (MDA-MB-468): 3.47 µM
Log10 TGI50 (MDA-MB-468): −6.05
GI50 [1]: 3200 to 7350 nM
GI50 [2]: 3550 to 52800 nM
GI50 [3]: 940 to 5240 nM
GI50 [4]: 1600 to 6300 nM
GI50 [5]: 3870 to 4100 nM
